# Measurements published in PMC8765320, “Identification of a Proteasome-Targeting Arylsulfonamide with Potential for the Treatment of Chagas’ Disease” (Antimicrobial Agents and Chemotherapy, 2022).
# Where two headings read alike, the source gives them in different places.
# How the values were obtained:
# [1] = tested on: L. donovani intramacrophage; set-up: method as in Peña et al. (12); conditions: ref Peña et al. (12), read-out: Mean compound 1 EC50; cited from earlier work
# CYP51 = tested on: CYP51; set-up: method as in PMID 25740547; conditions: cited from earlier work
# [2] = tested on: ubiquitinated proteins in T. cruzi epimastigotes; assay: Accumulation of ubiquitinated proteins in treated epimastigotes (LC-MS/MS); type: cell-based, Trypanosoma cruzi; conditions: epimastigotes pretreated 8 h at 3× EC50 (methods: 8× EC50); one biological replicate
# Protocol: In cells where the function of the proteasome has been compromised, there is a concomitant build-up of ubiquitinated proteins earmarked for degradation. […] Control cultures were treated for the same period of time in the presence of dimethyl sulfoxide (DMSO). Enrichment of ubiquitinated proteins was achieved by immunoprecipitation using magnetic beads conjugated to an antibody specific for the remnant of ubiquitinated lysines following digestion with trypsin and/or LysC. We used liquid chromatography-tandem mass spectrometry (LC-MS/MS) to calculate the ubiquitination ratio of each sample by dividing the reporter intensity of ubiquitinated proteins by the reporter intensity of total protein (see Table S8). As expected, the accumulation of ubiquitinylated proteins was highest in epimastigotes treated with bortezomib (2.7-fold higher than in the DMSO-treated control), which is known to inhibit all three catalytic activities of the proteasome (Fig. 3). […] Similarly, ubiquitinated proteins accumulated to levels 1.9-fold higher in compound 1-treated parasites compared to those recovered from DMSO-treated control cells.
# Controls were incubated in the presence of diluent (DMSO). Cells were harvested by centrifugation (1,912 × g, 15 min, 4°C) and washed with ice-cold PBS (1,912 × g, 5 min, 4°C); finally, the cell pellets were resuspended in 1.5 ml of ice-cold lysis buffer (1 mM EDTA, 1 mM DTT, 100 μM TLCK, and 1× Roche EDTA-free cOmplete protease inhibitor cocktail in 50 mM potassium phosphate buffer [pH 7.4]). Cell suspensions were submitted to three freeze-thaw cycles in a dry ice/ethanol bath to biologically inactivate the parasites and then lysed using a OneShot cell disruptor (Constant Systems) at 30 kpsi.
# Cell lysates were centrifuged (100,000 × g, 20 min, 4°C), supernatants were collected, and the protein concentrations were determined by using a standard Bio-Rad protein assay. […]
# T. cruzi epimastigotes = assay: T. cruzi epimastigote drug sensitivity assay (resazurin); type: cell-based, Trypanosoma cruzi; conditions: for EC50: Trypanosoma cruzi
# Protocol: To examine the effects of test compounds on the growth of T. cruzi epimastigotes, mid-log-phase parasites were seeded into 96-well plates at a cell density of 5 × 10^5 cells ml^−1. Cells were exposed to test compounds over a range of concentrations (2-fold serial dilutions). Cells were incubated for 4 days, and then 20 μl of 2.5 mM resazurin was added to each well, before measuring the fluorescence (excitation, 528 nm; emission, 590 nm), following a further 24 h of incubation. […] In this equation, [I] represents the inhibitor concentration, and m is the slope factor. Experiments were repeated at least two times, and the data are presented as means plus the standard deviations.
smiles,measurement,setting,value
COc1ccc(NS(=O)(=O)c2cc(-c3cc(C)n[nH]3)ccc2C)cc1OC [Compound 1],EC50,[1],8 µM
same,CYP51 pIC50,CYP51,4.4
same,accumulation of ubiquitinated proteins versus DMSO-treated control,[2],1.9 fold
same,EC50,"T. cruzi epimastigotes; T. cruzi epimastigote, weighted mean, n ≥ 3, read-out: Mean compound 1 EC50 ± SD",3 ± 0.08 µM
same,EC50,"T. cruzi epimastigotes; WT promastigotes (so in the source), Fig. 2B, one biological replicate, read-out: EC50",0.7 ± 0.01 µM
same,EC50,"T. cruzi epimastigotes; cell line Wild type, read-out: Mean EC50 ± SD",3.3 ± 0.08 µM
same,EC50,"T. cruzi epimastigotes; read-out: Mean EC50 ± SD, cell line ME OE (cTcME overexpressing)",5 ± 0.11 µM
same,EC50,"T. cruzi epimastigotes; read-out: Mean EC50 ± SD, cell line RES I (compound 1-resistant, β5 D225N)",61 ± 1 µM
same,EC50,"T. cruzi epimastigotes; read-out: Mean EC50 ± SD, cell line RES II (compound 1-resistant, β5 D225N)",54 ± 1 µM
same,EC50,"T. cruzi epimastigotes; read-out: Mean EC50 ± SD, cell line RES III (compound 1-resistant, β5 D225N)",61 ± 0.7 µM
same,EC50,"T. cruzi epimastigotes; read-out: Mean EC50 ± SD, cell line RES IV (compound 1-resistant, no proteasome mutation)",31 ± 2 µM
same,EC50,"T. cruzi epimastigotes; read-out: Mean EC50 ± SD, cell line RES V (compound 1-resistant, β4 I27T)",70 ± 2 µM
same,EC50,"T. cruzi epimastigotes; read-out: Mean EC50 ± SD, cell line Res I-β5 OE (β5 WT overexpressed in RES I)",13 ± 0.8 µM
same,EC50,"T. cruzi epimastigotes; read-out: Mean EC50 ± SD, cell line β4 F24L/I29M (CRISPR-edited)",> 50 µM
same,EC50,"T. cruzi epimastigotes; read-out: Mean EC50 ± SD, cell line β5 D225N-OE (overexpressing mutated β5)",27 ± 1 µM
same,EC50,"T. cruzi epimastigotes; resistant clone I, Fig. 2B, one biological replicate, read-out: EC50",23 ± 4 µM
same,EC50,"T. cruzi epimastigotes; resistant clone II, Fig. 2B, one biological replicate, read-out: EC50",16 ± 0.3 µM
same,EC50,"T. cruzi epimastigotes; resistant clone IV, Fig. 2B, one biological replicate, read-out: EC50",11 ± 1 µM
same,EC50,"T. cruzi epimastigotes; resistant clone V, Fig. 2B, one biological replicate, read-out: EC50",14 ± 6 µM
same,fold change versus the WT,T. cruzi epimastigotes; cell line ME OE,1 fold
same,fold change versus the WT,T. cruzi epimastigotes; cell line RES I,18 fold
same,fold change versus the WT,T. cruzi epimastigotes; cell line RES II,16 fold
same,fold change versus the WT,T. cruzi epimastigotes; cell line RES III,18 fold
same,fold change versus the WT,T. cruzi epimastigotes; cell line RES IV,9 fold
same,fold change versus the WT,T. cruzi epimastigotes; cell line RES V,21 fold
same,fold change versus the WT,T. cruzi epimastigotes; cell line Res I-β5 OE,4 fold
same,fold change versus the WT,T. cruzi epimastigotes; cell line β4 F24L/I29M,> 15 fold
same,fold change versus the WT,T. cruzi epimastigotes; cell line β5 D225N-OE,8 fold
same,susceptibility of CRISPR-edited epimastigotes,"T. cruzi epimastigotes; β4 F24L and I29M, at all of the concentrations tested",refractory
